Results on 1 compound are retold here after patent US20230192660A1 (priority 2020, published 2023).

Structures are written as SMILES. In brackets after ≈: the same amount, converted by molar mass. Like-named read-outs stand apart in the source and are kept apart here.

A short description of series [1]: in vitro. The conditions noted are these: human.
For series [2] the following is noted: after a maximal 800 mg oral dose; cited from earlier work.
Series [3] addresses Human Cathepsin B (Homo sapiens, UniProt P07858). Nature of the series: Cathepsin B protease specificity assay (Z-LR-AMC substrate). The series is classed as biochemical. The conditions noted are these: 0.05 ng/uL Cathepsin B, pH 5.5, 2 mM DTT; read-out: IC50 HCathepsin B.
Series [4] is described as follows: in vitro. Conditions: mouse, plasma.
A short description of series [5]: in vitro. The conditions noted are these: human, Caco-2.
Series [6] is described as follows: physchem. Conditions: aqueous buffer, kinetic from dmso stock.
Series [7] is described as follows: in vitro. Conditions: human plasma.
Series [8] can be described thus: in vitro. The conditions noted are these: human, Caco-2. The source holds these as a separate data set.
The target in series [9] is MHV M^pro (UniProt P0C6X9). Nature of the series: In-vitro Mpro inhibition assay, MHV enzyme. It is filed as biochemical, mouse hepatitis virus (MHV).
Chain of MHV M^pro (P0C6X9 3334-3635): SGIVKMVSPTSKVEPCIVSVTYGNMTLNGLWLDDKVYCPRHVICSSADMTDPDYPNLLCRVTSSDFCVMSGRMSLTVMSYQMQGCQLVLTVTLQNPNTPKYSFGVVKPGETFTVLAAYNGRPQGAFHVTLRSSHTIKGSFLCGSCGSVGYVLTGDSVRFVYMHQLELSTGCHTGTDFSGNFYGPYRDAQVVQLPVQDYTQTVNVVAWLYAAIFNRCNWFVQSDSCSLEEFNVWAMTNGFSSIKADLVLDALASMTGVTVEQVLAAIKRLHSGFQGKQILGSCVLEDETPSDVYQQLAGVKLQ
Series [10] has as its target Human Cathepsin L (Homo sapiens, UniProt P07711). As to the kind of experiment: biochemical. Conditions: 0.01 ng/uL Cathepsin L, pH 5.5, 2 mM DTT; read-out: IC50 HCathepsin L.

Chain of Human Cathepsin L (P07711 114-333): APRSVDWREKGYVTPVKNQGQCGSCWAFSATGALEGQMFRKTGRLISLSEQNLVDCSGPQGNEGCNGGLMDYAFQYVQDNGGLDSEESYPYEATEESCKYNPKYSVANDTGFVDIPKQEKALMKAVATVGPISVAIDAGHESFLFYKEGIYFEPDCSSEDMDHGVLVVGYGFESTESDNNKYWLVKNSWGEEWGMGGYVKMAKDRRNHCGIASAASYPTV

Broadly, the IC50 is the concentration that inhibits the measured activity by half. By half-life is commonly meant how long it takes for the measured level to halve. Low readings indicate rapid decline, high ones slow decline. Usually Papp A→B stands for the apparent permeability from the apical to the basolateral side of a cell layer. Read a high Papp A→B as ready permeation. As usually defined, the Papp B→A is how fast a substance crosses the layer from the basolateral side. A word on the kinetic solubility: it is the concentration staying in solution when a stock, usually in DMSO, is diluted into the medium. Turning to `CC(C)(C)NC(=O)N[C@H](C(=O)N1C[C@H]2[C@@H]([C@H]1C(=O)NC(CC1CCC1)C(=O)C(N)=O)C2(C)C)C(C)(C)C` (stereo partly drawn) [Boceprevir, boceprevir, reference compound], the CC50 in series [1] and in series [8] was over 100 µM throughout. The peak plasma concentration in [2] was 3 µM. The half-maximal inhibitory concentration (IC50) in [3] was determined as 4.5 µM; in series [9] (100 nM MHV Mpro, read-out: IC50 MHV Mpro) it was 15 µM; in series [9] (read-out: IC50, 100 nM mature MHV M^pro at 30° C., 100 nM enzyme, 30° C.), 15 ± 7 µM; in [10], 0.4 µM. Besides, the half-life in [4] amounted to 0.467 h; in [7], 8.25 h. Also, the apical-to-basolateral permeability (Papp A→B) in [5] amounted to 2 ×10⁻⁶ cm/s. Besides, the Papp B→A in series [5] is 29 ×10⁻⁶ cm/s. This compound showed a solubility (kinetic) in series [6] of 73 µM (≈ 37.9 µg/mL).
